Active and inactive are the calls of the source. No cut-off for these calls is given here.
Key:
PC-3 [1] = assay: Cytotoxicity against human PC3 cells after 72 hrs by MTT assay; format: functional, cell-based; details: PC-3, 72 h
DU-145 = assay: Cytotoxicity against human DU145 cells after 72 hrs by MTT assay; format: functional, cell-based; details: DU-145, 72 h
[2] = Cmax in rat at 25 mg/kg, po; format: ADME, organism-based; design: dose 25 mg/kg, route oral; details: in vivo
[3] = Half life in rat at 5 mg/kg, iv; format: ADME, organism-based; design: dose 5 mg/kg, route intravenous; details: in vivo
[4] = Apparent volume of distribution in rat at 5 mg/kg, iv; format: ADME, organism-based; design: dose 5 mg/kg, route intravenous; details: in vivo, read-out: Vz
[5] = Oral bioavailability in rat at 25 mg/kg, po; format: ADME, organism-based; details: in vivo
[6] = Clearance in rat at 5 mg/kg, iv; format: ADME, organism-based; design: dose 5 mg/kg, route intravenous; details: in vivo
[7] = Clearance in rat at 5 mg/kg, iv in presence of captisol; format: ADME, organism-based; design: dose 5 mg/kg, route intravenous; details: in vivo
PC-3 [8] = assay: Disruption of microtubule network in human PC3 cells after 1 hr; format: functional, cell-based
[9] = Half life in rat at 5 mg/kg, iv in presence of captisol; format: ADME, organism-based; design: dose 5 mg/kg, route intravenous; details: in vivo
PC-3 [10] = assay: Cell cycle arrest in human PC3 cells assessed as accumulation in G2/M phase after 1 hr; format: functional, cell-based
Bos taurus = species: Bos taurus; assay: Inhibition of bovine tubulin polymerization at 3 uM
[11] = Apparent volume of distribution in rat at 5 mg/kg, iv in presence of captisol; format: ADME, organism-based; design: dose 5 mg/kg, route intravenous; details: in vivo, read-out: Vz

SMILES	IC50 (PC-3 [1]) [nM]	IC50 (DU-145) [nM]	other results
CCC[C@H](Nc1ccnc(-c2ccc(NC(=O)NCC)c(OC)c2)n1)c1cccnc1	150	200	–
CCCC(Nc1cncc(-c2ccc(O)c(OC)c2)n1)c1ccccc1 (stereo not drawn)	160	500	–
CCCC(Nc1cncc(-c2ccc(O)c(OC)c2)n1)c1cccnc1 (stereo not drawn)	300	600	–
CCCC(Nc1cncc(-c2ccc(NC(=O)NCC)c(CC)c2)n1)c1cccnc1 (stereo not drawn)	160	100	–
CCC[C@H](Nc1nc(-c2ccc(NC(=O)NCC)c(OC)c2)ncc1C)c1cccnc1 [LEXIBULIN]	60	60	Cmax [2]: 9.4 µM; half-life [3]: 96 min; Vd [4]: 5.2 L/kg; bioavailability [5]: 78%; clearance [6]: 36.8 mL/min/kg
CCCC(Nc1cncc(-c2ccc(O)c(OCC)c2)n1)c1cccnc1 (stereo not drawn)	1000	–	–
CCC[C@H](Nc1cc(C)nc(-c2ccc(NC(=O)NCC)c(OC)c2)n1)c1cccnc1	200	200	–
CC[C@H](Nc1cncc(-c2ccc(O)c(OC)c2)n1)c1ccccc1	10000	10000	–
CCCC(Nc1cncc(-c2ccc(O)c(OC)c2)n1)c1cccc(OC)c1 (stereo not drawn)	10000	1000	–
CCCC(Nc1cncc(-c2ccc(O)c(OC(C)C)c2)n1)c1cccnc1 (stereo not drawn)	10000	10000	–
CCCC(=O)Nc1ccc(-c2cncc(NC(CCC)c3cccnc3)n2)cc1OC (stereo not drawn)	600	–	–
CCCC(Nc1cncc(-c2ccc(O)c(OC)c2)n1)c1ccc(OC)cc1 (stereo not drawn)	3000	3000	–
CCC[C@H](Nc1cncc(-c2ccc(NC(=O)NCC)c(OC)c2)n1)c1cccnc1	–	–	clearance [7]: 127 mL/min/kg; Activity (PC-3 [8]): Active; half-life [9]: 36 min; Activity (PC-3 [10]): Active; inhibition (Bos taurus): Active; Vd [11]: 7.1 L/kg
CCC[C@H](Nc1cncc(-c2ccc(O)c(OC)c2)n1)c1ccccc1	160	200	–
CCCC(Nc1cncc(-c2ccc(O)c(OC)c2)n1)c1cccc(F)c1 (stereo not drawn)	600	300	–
CCCC(Nc1cncc(-c2ccc(NC(C)=O)c(OC)c2)n1)c1cccnc1 (stereo not drawn)	5000	–	–
CCC[C@H](Nc1cc(-c2ccc(NC(=O)NCC)c(OC)c2)ncn1)c1cccnc1	100	100	–
CCCC(Nc1cncc(-c2ccc(O)c(OC)c2)n1)c1ccc(F)cc1 (stereo not drawn)	–	4000	–
CCCC(Nc1cncc(-c2ccc(NC(=O)NCCN(C)C)c(OC)c2)n1)c1cccnc1 (stereo not drawn)	1000	1000	–
CCCC(Nc1cncc(-c2ccc(NC(=O)NCC)c(OC)c2)n1)c1cccnc1 (stereo not drawn)	40	60	–
CCCC(Nc1cncc(-c2ccc(O)c(OC)c2)n1)c1ccc(Cl)cc1 (stereo not drawn)	20000	10000	–
CCC[C@H](Nc1cc(-c2ccc(NC(=O)NCC)c(OC)c2)nc(C)n1)c1cccnc1	80	100	–
COc1cc(-c2cncc(N[C@@H](C)c3ccccc3)n2)ccc1O	10000	3000	–
CCCC(Nc1cncc(-c2ccc(O)c(OC)c2)n1)c1cccc(Cl)c1 (stereo not drawn)	1000	600	–

From ChEMBL document CHEMBL1153491, “Discovery of CYT997: a structurally novel orally active microtubule targeting agent” (Bioorg Med Chem Lett, 2009)
